According to EP4413976B1, “A NEW VAMOROLONE PREPARATION EXHIBITING IMPROVED SOLUBILITY” (Santhera Pharmaceuticals (Schweiz) AG, priority 2023, dated 2024):
In brackets after ≈: the same amount, converted by molar mass.

Assays:
[1] = kinetic solubility in FaSSIF (Pion µDissolution monitor); format: physicochemical; conditions: thermodynamic from solid, FaSSIF pH 6.5, 37° C
Method: SDD prototypes were evaluated for kinetic solubility in FaSSIF (Fasted State Simulated Intestinal Fluid, pH = 6.5) using the Pion µDissolution monitor with a tip path length of 2 mm. Data were collected using AUPro software over a period of 18 hours in 20 mL of each media, heated to 37 ± 2 °C. A stir speed of 250 rpm for the duration of the experiment.

[2] = solubility in aqueous solution at 37°C; format: physicochemical
[3] = solvent solubility screening of micronized Vamorolone (visual, solvent added in aliquots); format: physicochemical; conditions: for 200 µl / +100 µl: 10 mg Vamorolone; for 200 µl: dissolved after 200 µl; for +100 µl: dissolved after further 100 µl
Method: The solubility of micronized Vamorolone was assessed in several typical organic solvent systems suitable for use in spray drying.
A quantity of 10 mg of Vamorolone was dispensed into a 2 mL HPLC vial. The experimental design was to add the test solvent in aliquots, 200 µl and 100 µl. After each aliquot addition the sample was to be mixed on a vortex mixer for 1 minute and solubility assessed visually. Observations were also made after one hour of solvent addition.

glucocorticoid receptor = target: T1, glucocorticoid receptor (Homo sapiens, UniProt P04150); conditions: pre-clinical data, background statement; cited from earlier work
T1 sequence (P04150 1-777): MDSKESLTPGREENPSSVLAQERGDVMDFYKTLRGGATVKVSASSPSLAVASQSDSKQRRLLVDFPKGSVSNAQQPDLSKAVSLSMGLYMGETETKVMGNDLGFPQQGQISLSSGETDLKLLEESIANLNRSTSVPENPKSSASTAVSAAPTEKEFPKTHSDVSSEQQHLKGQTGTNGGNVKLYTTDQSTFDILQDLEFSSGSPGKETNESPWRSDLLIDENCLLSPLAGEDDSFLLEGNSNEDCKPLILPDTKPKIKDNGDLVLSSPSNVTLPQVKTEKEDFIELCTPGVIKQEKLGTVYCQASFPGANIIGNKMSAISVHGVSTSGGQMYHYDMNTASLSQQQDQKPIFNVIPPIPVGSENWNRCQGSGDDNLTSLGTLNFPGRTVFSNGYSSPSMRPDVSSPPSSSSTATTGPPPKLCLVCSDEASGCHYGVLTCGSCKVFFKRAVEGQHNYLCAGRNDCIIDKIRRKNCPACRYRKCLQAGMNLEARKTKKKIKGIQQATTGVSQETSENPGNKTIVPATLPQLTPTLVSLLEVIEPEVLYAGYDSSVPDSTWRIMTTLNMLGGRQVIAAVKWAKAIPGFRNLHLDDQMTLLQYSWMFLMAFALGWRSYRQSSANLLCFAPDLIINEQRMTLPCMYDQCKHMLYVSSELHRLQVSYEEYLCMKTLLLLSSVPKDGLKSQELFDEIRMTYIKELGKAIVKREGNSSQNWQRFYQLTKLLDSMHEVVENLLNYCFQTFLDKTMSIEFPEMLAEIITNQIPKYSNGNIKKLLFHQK

inflammatory states = conditions: multiple mouse models of inflammatory states, background statement; cited from earlier work
[4] = storage of cryo-milled amorphous Vamorolone; format: physicochemical; conditions: room temperature in a closed container

## C[C@@H]1C[C@H]2[C@@H]3CCC4=CC(=O)C=C[C@]4(C)C3=CC[C@]2(C)[C@@]1(O)C(=O)CO [Crystalline API, 17α,21-dihydroxy-16α-methylpregna-1,4,9(11)-triene-3,20-dione]
[1]; T=5 min
  solubility at 5 min: 46.4 µg/mL (≈ 130 µM)
[1]; T=30 min
  solubility at 30 min: 48.9 µg/mL (≈ 137 µM)
[1]; T=1 hour
  solubility at 1 h: 49.2 µg/mL (≈ 138 µM)
[1]; T=4 hour
  solubility at 4 h: 49 µg/mL (≈ 137 µM)
[1]; T=12 hour
  solubility at 12 h: 48.8 µg/mL (≈ 137 µM)
[1]; T=18 hour
  solubility at 18 h: 48.7 µg/mL (≈ 137 µM)

## C[C@@H]1C[C@H]2[C@@H]3CCC4=CC(=O)C=C[C@]4(C)C3=CC[C@]2(C)[C@@]1(O)C(=O)CO [Vamorolone, 17α,21-dihydroxy-16α-methylpregna-1,4,9(11)-triene-3,20-dione]
[2]
  solubility: ~40 µg/mL (≈ 112 µM)
[3]; Acetone
  Observation 1 hour after solubility assessment: Hazy
  Observation after solubility assessment: Hazy
  200 µl: ×
  +100 µl: ×
[3]; DCM
  Observation 1 hour after solubility assessment: Clear
  Observation after solubility assessment: Clear
  200 µl: ×
  +100 µl: ✔
[3]; DCM (dichloromethane):methanol (1:1)
  clear solution: 50 mg/mL
[3]; DCM (dichloromethane):methanol (1:3)
  clear solution: 50 mg/mL
[3]; DCM:Methanol (1:1)
  Observation 1 hour after solubility assessment: Clear
  Observation after solubility assessment: Clear
  200 µl: ✔
[3]; DCM:Methanol (1:3)
  Observation 1 hour after solubility assessment: Clear
  Observation after solubility assessment: Clear
  200 µl: ✔
[3]; Ethanol
  Observation 1 hour after solubility assessment: Hazy
  Observation after solubility assessment: Hazy
  200 µl: ×
  +100 µl: ×
[3]; Ethyl Acetate
  Observation 1 hour after solubility assessment: Hazy
  Observation after solubility assessment: Hazy
  200 µl: ×
  +100 µl: ×
[3]; Isopropanol
  Observation 1 hour after solubility assessment: Hazy
  Observation after solubility assessment: Hazy
  200 µl: ×
  +100 µl: ×
[3]; Methanol
  Observation 1 hour after solubility assessment: Clear
  Observation after solubility assessment: Clear
  200 µl: ×
  +100 µl: ✔
[3]; Water
  Observation 1 hour after solubility assessment: Hazy
  Observation after solubility assessment: Hazy
  200 µl: ×
  +100 µl: ×
Glucocorticoid receptor
  binding to the glucocorticoid receptor: binds potently
Inflammatory states
  efficacy: efficacy similar to prednisolone

## C[C@@H]1C[C@H]2[C@@H]3CCC4=CC(=O)C=C[C@]4(C)C3=CC[C@]2(C)[C@@]1(O)C(=O)CO [amorphous Vamorolone, 17α,21-dihydroxy-16α-methylpregna-1,4,9(11)-triene-3,20-dione]
[4]
  physical stability of the amorphous form: recrystallize within days
